Active and inactive are the calls of the source.
Assays:
[1] = P. falciparum Dd2 growth inhibitors, dose response, SYBR Green, cherry-picked samples (AID 1159567); type: functional, cell-based
[2] = toxicity to human hepatoma HepG2 cells – cell-based, cherry-picked samples, cytotoxicity control, dose response (AID 1159577); type: functional
Prothrombin = Prothrombin (Homo sapiens, UniProt P00734); test: Thrombin 1536 HTS Dose Response Confirmation. [Related pubchem assays: 1046 (Thrombin 1536 HTS; hits were confirmed in this assay)]; type: functional
[3] = M. tuberculosis H37Rv growth inhibitors, H37Rv strain (AID 1626); type: functional
Cytochrome P450 3A4 = Cytochrome P450 3A4 (Homo sapiens, UniProt P08684);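 further: CYP3A4 tested as one member of a cytochrome P450 panel screen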
[4] = Luminescence Cell-Based Dose Confirmation HTS to Identify Activators of 5'UTR Stem-Loop Driven Alpha-Synuclein mRNA Translation in H4 Neuroglioblastoma Cells. [Related pubchem assays: 1829 (Project Summary), 1814 (Primary HTS)]; type: functional
[5] = Luminescence Cell-Based Dose Response HTS to Identify Activators of Luciferase Translation or Activity in H4 […] Cells. [Related pubchem assays: 1829 (Project Summary), 1814 (Primary HTS)]; type: functional
H4 = test: Luminescence Cell-Based Dose Response HTS to Identify Activators of 5'UTR Stem-Loop Driven Prion Protein mRNA Translation in H4 Neuroglioblastoma Cells. [Related pubchem assays: 1829 (Project Summary), 1814 (Primary HTS)]; type: functional; conditions: Homo sapiens
[6] = growth inhibition of yeast DHODH-expressing 3D7 parasites – SYBR Green, dry powder samples, dose response (AID 1159570); type: functional, cell-based;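 further: parasite growth measured after 72 hours of compound exposure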
[7] = Dd2 malaria parasite growth inhibition potency – SYBR Green, dry powder samples, dose response (AID 1159566); type: functional, cell-based;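 further: potency for growth inhibition with lower SYBR green DNA signal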
[8] = growth inhibition of PfATP4-mutant resistant parasites – NITD609-resistant line, SYBR Green, dry powder, dose response (AID 1159571); type: functional, cell-based;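 further: parasites synchronized at ring stage by sorbitol before testing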
[9] = Luminescence Cell-Based Dose Response to Identify Activators of 5'UTR Stem-Loop Driven Prion Protein mRNA Translation in H4-C Neuroglioblastoma Cells. [Related pubchem assays: 1829 (Project Summary), 1814 (Primary HTS)]; type: functional
[10] = Luminescence Cell-Based Dose Response to Identify Activators of Luciferase Translation or Activity in H4-C Neuroglioblastoma Cells. [Related pubchem assays: 1829 (Project Summary), 1814 (Primary HTS)]; type: functional
[11] = Luminescence Cell-Based Dose Confirmation to Identify Activators of 5'UTR Stem-Loop Driven Alpha-Synuclein mRNA Translation in H4 Neuroglioblastoma Cells. [Related pubchem assays: 1829 (Project Summary), 1814 (Primary HTS)]; type: functional
[12] = target: Mitogen-activated protein kinase 10 (Homo sapiens, UniProt P53779); test: Dose response biochemical screening assay for inhibitors of c-Jun N-Terminal Kinase 3 (JNK3). [Related pubchem assays: 746 ]
[13] = viability of uninfected HEp-2 cells – cell-based, HTS, cytotoxicity control for RSV inhibitor project, dose response (AID 2410); type: functional; conditions: human respiratory syncytial virus
[14] = Luminescence Cell-Based Dose Retest to Confirm Inhibitors of Cancer Stem Cells. [Related pubchem assays (depositor defined):AID2717, AID2721]; type: functional; conditions: Homo sapiens
Caspase-6 = target: T1, Caspase-6 (Homo sapiens, UniProt P55212); test: inhibition of CASP6 peptide cleavage – biochemical, VEID-R110 fluorescence, cherry-pick, dose response (AID 720632)
T1 sequence (P55212 whole entry): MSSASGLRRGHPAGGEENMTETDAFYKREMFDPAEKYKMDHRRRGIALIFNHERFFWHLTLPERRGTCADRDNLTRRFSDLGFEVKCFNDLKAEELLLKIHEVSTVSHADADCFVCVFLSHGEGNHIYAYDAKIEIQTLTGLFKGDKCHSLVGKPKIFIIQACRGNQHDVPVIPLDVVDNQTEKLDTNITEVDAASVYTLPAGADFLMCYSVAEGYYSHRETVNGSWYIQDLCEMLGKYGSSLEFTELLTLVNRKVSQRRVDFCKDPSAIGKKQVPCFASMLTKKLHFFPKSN

Fatty acid synthase [15] = target: T2, Fatty acid synthase (Homo sapiens, UniProt P49327); test: inhibition of human FAS-TE enzyme activity – biochemical, endpoint fluorescence intensity, uHTS hits, dose response (AID 624327); type: functional;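 further: fluorescence from hydrolysis of an O-methyl fluorescein acyl ester substrate by the enzyme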
Fatty acid synthase [16] = target: T2, Fatty acid synthase; test: inhibition of human FAS-TE enzyme activity – biochemical, kinetic fluorescence intensity, dose response (AID 624326); type: functional;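 further: rate of fluorescence rise from hydrolysis of a fluorogenic O-methyl fluorescein ester substrate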
Caspase-3 = target: T3, Caspase-3 (Homo sapiens, UniProt P42574); type: functional;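 further: Dose-response selectivity test against caspase-3 for candidate inhibitors of sentrin-specific proteases (SENPs)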
T3 sequence (P42574 whole entry): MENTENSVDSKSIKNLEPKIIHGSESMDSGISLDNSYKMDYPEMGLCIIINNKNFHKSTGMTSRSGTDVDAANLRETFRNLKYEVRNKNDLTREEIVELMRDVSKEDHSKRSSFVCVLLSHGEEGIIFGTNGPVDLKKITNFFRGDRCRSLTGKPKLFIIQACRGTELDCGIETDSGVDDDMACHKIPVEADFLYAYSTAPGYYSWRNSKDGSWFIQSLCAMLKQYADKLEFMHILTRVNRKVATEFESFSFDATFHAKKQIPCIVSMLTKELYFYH

[17] = target: T4, Sentrin-specific protease 7 (Homo sapiens, UniProt Q9BQF6); type: functional;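 further: Luminescence-based dose-response confirmation of ultra-high-throughput screening hits, measuring inhibition of SENP7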
T4 sequence (Q9BQF6 whole entry): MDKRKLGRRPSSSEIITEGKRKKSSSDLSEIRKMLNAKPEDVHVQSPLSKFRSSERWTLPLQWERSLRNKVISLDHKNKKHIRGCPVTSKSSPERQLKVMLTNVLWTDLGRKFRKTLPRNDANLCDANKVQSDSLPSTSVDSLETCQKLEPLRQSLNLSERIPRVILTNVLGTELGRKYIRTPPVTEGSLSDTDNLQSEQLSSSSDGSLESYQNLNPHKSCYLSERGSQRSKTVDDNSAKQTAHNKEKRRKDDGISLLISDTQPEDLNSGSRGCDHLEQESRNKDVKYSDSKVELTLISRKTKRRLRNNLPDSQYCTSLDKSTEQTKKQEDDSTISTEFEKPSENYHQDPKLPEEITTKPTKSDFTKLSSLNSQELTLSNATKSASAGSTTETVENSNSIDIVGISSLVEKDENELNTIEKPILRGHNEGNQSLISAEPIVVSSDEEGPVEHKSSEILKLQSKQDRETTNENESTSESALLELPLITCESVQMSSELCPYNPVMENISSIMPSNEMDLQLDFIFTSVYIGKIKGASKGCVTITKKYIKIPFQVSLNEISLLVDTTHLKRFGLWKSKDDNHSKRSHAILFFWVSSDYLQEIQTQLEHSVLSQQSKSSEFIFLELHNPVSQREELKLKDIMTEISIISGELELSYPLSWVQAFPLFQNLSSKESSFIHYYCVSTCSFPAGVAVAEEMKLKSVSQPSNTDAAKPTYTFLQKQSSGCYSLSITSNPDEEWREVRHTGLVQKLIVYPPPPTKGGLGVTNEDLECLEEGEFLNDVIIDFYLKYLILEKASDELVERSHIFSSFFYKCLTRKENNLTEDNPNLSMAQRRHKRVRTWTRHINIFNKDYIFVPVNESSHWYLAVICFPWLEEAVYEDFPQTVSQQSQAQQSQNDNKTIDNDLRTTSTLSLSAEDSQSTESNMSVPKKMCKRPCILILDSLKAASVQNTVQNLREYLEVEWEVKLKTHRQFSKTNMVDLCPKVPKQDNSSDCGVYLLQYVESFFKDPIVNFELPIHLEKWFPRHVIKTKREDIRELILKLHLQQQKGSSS

[18] = target: T5, Sentrin-specific protease 6 (Homo sapiens, UniProt Q9GZR1); type: functional;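 further: Luminescence-based dose-response confirmatory assay of SENP6 inhibition, following up an ultra-high-throughput screen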
T5 sequence (Q9GZR1 whole entry): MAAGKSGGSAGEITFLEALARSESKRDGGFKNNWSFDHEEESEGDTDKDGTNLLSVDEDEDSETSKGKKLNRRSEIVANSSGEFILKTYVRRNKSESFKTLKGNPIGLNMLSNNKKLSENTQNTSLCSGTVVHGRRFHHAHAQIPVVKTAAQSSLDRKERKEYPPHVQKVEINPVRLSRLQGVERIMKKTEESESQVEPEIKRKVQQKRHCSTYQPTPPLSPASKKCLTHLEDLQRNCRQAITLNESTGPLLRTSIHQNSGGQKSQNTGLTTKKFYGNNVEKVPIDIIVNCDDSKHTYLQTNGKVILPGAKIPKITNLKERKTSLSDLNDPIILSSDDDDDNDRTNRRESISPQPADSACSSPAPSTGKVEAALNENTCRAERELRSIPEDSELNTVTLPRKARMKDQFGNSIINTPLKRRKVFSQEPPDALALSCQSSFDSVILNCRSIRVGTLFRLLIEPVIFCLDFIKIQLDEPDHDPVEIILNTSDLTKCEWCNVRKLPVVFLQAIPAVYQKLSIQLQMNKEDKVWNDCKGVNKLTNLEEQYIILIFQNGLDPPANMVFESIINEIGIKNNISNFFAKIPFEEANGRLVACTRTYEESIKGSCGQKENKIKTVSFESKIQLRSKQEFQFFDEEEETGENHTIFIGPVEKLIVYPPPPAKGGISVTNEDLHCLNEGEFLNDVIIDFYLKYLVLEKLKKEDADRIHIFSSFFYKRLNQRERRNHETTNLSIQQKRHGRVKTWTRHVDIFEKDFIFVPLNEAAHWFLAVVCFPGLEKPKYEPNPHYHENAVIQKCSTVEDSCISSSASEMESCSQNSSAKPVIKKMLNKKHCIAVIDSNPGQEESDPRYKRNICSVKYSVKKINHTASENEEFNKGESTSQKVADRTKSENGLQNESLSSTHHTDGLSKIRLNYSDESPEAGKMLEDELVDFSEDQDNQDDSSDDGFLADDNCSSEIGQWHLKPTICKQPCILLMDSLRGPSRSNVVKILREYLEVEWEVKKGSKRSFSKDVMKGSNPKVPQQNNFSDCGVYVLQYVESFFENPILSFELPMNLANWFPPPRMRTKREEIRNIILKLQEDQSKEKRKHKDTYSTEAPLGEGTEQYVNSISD

[19] = target: T6, Sentrin-specific protease 8 (Homo sapiens, UniProt Q96LD8); type: functional;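 further: luminescence read-out of SENP8 inhibition, dose-response confirmation following an ultra-high-throughput screen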
T6 sequence (Q96LD8 whole entry): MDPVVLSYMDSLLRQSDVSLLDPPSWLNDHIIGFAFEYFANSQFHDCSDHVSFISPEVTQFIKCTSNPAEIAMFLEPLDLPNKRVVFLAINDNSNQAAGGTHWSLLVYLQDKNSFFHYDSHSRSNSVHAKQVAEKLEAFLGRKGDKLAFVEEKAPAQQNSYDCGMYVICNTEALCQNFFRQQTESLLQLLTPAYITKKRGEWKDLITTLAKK

Mitogen-activated protein kinase 10, sequence (P53779 whole entry): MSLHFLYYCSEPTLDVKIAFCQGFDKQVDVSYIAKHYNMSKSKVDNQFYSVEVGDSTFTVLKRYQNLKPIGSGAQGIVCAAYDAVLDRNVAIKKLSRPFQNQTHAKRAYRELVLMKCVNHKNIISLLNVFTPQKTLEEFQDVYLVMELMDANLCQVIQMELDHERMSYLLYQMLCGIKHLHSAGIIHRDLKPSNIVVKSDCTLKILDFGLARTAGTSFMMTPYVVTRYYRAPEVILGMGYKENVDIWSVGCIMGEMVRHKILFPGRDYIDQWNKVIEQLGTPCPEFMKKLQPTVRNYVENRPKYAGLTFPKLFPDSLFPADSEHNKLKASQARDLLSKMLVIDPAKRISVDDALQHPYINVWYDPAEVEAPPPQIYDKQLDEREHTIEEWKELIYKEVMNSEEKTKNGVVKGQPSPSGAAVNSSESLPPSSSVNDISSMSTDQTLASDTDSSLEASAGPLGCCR
T2 sequence (P49327 whole entry): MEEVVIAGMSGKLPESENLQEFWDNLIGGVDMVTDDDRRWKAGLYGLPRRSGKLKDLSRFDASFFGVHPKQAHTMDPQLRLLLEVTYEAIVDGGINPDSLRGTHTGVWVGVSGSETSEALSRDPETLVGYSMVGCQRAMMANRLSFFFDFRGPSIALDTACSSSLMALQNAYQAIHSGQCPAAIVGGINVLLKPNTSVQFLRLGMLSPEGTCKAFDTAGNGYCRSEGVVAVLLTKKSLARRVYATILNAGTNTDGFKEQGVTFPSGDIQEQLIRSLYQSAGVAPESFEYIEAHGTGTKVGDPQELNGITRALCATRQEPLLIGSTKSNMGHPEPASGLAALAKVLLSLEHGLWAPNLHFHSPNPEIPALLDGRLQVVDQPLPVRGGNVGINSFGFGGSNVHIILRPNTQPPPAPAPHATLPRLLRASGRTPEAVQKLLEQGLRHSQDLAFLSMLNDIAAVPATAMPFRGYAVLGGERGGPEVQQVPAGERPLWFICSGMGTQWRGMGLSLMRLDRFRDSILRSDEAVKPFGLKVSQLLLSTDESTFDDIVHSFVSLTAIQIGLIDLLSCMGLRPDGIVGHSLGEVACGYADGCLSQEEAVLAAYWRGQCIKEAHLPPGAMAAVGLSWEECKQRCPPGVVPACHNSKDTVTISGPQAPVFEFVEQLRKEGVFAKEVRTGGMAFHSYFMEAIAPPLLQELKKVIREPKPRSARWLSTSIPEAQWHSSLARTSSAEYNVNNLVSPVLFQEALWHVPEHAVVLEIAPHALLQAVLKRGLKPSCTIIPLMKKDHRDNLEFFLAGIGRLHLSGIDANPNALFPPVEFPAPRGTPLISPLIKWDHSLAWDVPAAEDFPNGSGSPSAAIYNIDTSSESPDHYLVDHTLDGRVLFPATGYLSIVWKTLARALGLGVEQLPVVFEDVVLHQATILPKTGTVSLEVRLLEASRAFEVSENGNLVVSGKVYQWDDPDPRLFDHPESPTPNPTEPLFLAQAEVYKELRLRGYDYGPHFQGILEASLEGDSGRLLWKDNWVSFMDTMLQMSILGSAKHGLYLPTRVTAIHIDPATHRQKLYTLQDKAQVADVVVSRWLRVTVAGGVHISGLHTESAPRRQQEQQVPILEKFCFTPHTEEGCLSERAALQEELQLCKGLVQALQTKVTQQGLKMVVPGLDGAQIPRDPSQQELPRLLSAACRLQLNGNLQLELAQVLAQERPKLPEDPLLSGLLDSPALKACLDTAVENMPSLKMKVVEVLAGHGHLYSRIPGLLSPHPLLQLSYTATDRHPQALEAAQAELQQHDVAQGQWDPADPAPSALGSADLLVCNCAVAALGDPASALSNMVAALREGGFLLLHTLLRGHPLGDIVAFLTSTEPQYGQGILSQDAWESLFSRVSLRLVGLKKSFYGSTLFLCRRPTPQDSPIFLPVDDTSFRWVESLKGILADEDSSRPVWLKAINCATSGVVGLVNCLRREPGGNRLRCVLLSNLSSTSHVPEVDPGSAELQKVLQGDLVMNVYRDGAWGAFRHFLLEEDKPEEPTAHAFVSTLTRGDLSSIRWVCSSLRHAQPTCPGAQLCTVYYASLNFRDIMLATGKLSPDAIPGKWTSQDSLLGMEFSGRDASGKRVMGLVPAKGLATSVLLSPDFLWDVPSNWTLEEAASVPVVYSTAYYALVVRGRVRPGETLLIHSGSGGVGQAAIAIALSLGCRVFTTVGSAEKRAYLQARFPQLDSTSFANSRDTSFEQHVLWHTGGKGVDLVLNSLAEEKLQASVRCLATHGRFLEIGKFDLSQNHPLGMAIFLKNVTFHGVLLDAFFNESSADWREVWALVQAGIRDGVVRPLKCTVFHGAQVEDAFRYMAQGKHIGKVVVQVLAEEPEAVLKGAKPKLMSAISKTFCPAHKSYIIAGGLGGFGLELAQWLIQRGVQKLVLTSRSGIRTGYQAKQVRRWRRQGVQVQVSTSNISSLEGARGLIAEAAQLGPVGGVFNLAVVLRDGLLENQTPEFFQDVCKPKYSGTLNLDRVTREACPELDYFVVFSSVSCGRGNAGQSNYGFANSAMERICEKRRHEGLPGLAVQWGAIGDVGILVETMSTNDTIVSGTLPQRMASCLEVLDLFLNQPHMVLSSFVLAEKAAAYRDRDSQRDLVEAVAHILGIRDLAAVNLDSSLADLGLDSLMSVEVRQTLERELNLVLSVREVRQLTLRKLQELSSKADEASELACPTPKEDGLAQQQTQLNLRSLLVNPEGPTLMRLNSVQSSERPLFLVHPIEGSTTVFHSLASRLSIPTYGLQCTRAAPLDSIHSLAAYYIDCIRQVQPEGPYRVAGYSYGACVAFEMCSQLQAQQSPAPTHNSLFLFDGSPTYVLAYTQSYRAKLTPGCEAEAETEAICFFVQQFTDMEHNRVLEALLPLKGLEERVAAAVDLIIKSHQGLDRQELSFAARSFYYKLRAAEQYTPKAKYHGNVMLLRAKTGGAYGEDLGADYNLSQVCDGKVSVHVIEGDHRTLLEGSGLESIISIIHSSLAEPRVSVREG
Cytochrome P450 3A4, sequence (P08684 whole entry): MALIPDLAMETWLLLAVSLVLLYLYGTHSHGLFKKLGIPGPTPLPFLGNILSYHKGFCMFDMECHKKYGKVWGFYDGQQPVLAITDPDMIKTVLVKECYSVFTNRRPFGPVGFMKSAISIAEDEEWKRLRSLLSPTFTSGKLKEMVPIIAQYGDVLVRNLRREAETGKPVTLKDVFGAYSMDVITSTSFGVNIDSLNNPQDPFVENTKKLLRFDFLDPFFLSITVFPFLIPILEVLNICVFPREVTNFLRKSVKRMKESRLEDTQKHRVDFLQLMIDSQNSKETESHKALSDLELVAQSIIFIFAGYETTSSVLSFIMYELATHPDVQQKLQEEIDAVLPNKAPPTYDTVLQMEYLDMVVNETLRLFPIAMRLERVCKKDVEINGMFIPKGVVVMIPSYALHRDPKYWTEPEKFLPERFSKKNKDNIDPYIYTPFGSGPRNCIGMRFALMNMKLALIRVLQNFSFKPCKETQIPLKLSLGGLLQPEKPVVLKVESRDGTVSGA

O=C(C1CCCCC1)N1CC(=O)N2[C@H](C1)[C@@H](c1ccc(C#Cc3cccc(F)c3)cc1)[C@@H]2CO
AC50 [1]: 4.26 µM (active)
AC50 [2]: > 39 µM (inactive)

COC(=O)c1n[nH]c(NC(=O)c2ccccc2Br)n1
IC50 (Prothrombin): 0.082 µM (active)

CCOC(=O)c1ccc(NC(=O)N2CCN(Cc3ccccc3)CC2)cc1
IC50 [3]: > 100 µM (active)

COC(=O)CSc1nnc(-c2ccccc2OC)n1-c1ccc(C)cc1
IC50 (Prothrombin): > 50 µM (not active)
AC50 (Cytochrome P450 3A4): 15.8 µM (inconclusive)

CCCc1nc2sc3ccccc3c(=O)c2c(=O)n1Cc1ccc(OC)cc1
IC50 [3]: > 100 µM (active)

COc1ccc(NC(=O)n2nc(OC(=O)c3cccs3)cc2N)cc1
EC50 [4]: > 60 µM (not active)
EC50 [5]: 12.1 µM (active)
EC50 (H4): 28.1 µM (active)
IC50 (Prothrombin): 12.7 µM (active)

CCN(Cc1nc(O)c2ccccc2n1)C(=O)c1cc(C2CC2)nn1-c1ccccc1
IC50 (cells): 8.79 µM (active)

CC(C)CNC[C@@H]1[C@@H](c2ccccc2)[C@@H](CO)N1Cc1ccc(F)cc1
AC50 [6]: 3.03 µM (active)
AC50 [1]: 1.33 µM (active)
AC50 [7]: 0.409 µM (active)
AC50 [8]: 0.727 µM (active)

Nc1nnc(CC(=O)N/N=C/c2cccc(OCCOc3ccccc3)c2)s1
EC50 [9]: 1.25 µM (active)
EC50 [5]: < 0.1 µM (active)
EC50 (H4): 21.8 µM (active)
EC50 [10]: 0.88 µM (active)
EC50 [11]: 0.38 µM (active)

COc1ccc2c3c(n(C)c2c1)[C@H](CO)N(CC1CCCCC1)CC31CCN(Cc2nccs2)CC1
AC50 [6]: 1.26 µM (active)
AC50 [1]: 1.94 µM (active)
AC50 [7]: 1.62 µM (active)
AC50 [8]: 1.52 µM (active)

O=C(CCCCCn1c(SCC(=O)c2ccccc2)nc2ccccc2c1=O)NCc1ccco1
IC50 [12]: 38.9 µM (not active)

COCCNc1cc(-c2ccccc2)nc2cc(-c3cccc(F)c3)nn12
CC50 [13]: 35.1 µM (active)
AC50 [14]: 6.74 µM (active)
IC50 (cells): 41.8 µM (active)

C[C@@H]1CN([C@H](C)CO)C(=O)c2c(c3ccccc3n2C)-c2ccccc2CO[C@H]1CN(C)Cc1ccc(Cl)c(Cl)c1
AC50 [1]: 3.7 µM (active)
AC50 [2]: 30 µM (active)

COc1cccc(S(=O)(=O)Nc2ccc3c(c2)[C@@H]2C[C@H](CC(=O)NCc4cccc(F)c4)O[C@@H](CO)[C@@H]2O3)c1
AC50 [1]: 6.43 µM (active)
AC50 [2]: 22.7 µM (active)

COc1ccc(OC)c(C(=O)c2coc3ccc(O)cc23)c1
IC50 [12]: > 93.1 µM (not active)

O=C1c2ccccc2C(=O)c2c([N+](=O)[O-])ccc(O)c21
AC50 (Caspase-6): 9.76 µM (active)

Cc1ccc(C)n1-c1sc2c(c1C(=O)O)CCCC2
AC50 (Caspase-6): 6.02 µM (active)

CCOc1nn(-c2ccccc2)c(O)c1/C=N/c1ccc(OC)cc1
IC50 [3]: > 100 µM (active)

Cc1cccn2c(=O)c(/C=C(\C#N)C(=O)NCc3ccco3)c(N3CCCCCC3)nc12
CC50 [13]: 22 µM (active)
IC50 (Fatty acid synthase [15]): 21.9 µM (inactive)
IC50 (Fatty acid synthase [16]): 9.53 µM (active)
IC50 (cells): 22.5 µM (active)

Cc1ccc(OCc2nc(-c3ccccc3)no2)c(C)c1
EC50 [9]: 1.03 µM (active)
EC50 [5]: < 0.1 µM (active)
EC50 [10]: > 12 µM (not active)
EC50 [11]: 8.27 µM (active)
IC50 (Caspase-3): 28.9 µM (active)
IC50 [17]: 7.65 µM (active)
IC50 [18]: 11.8 µM (active)
IC50 [19]: 62 µM (active)

Nc1nc(COc2ccc(Cl)cc2)cs1
IC50 [3]: > 100 µM (active)

CC(C(=O)N=Nc1c(O)[nH]c2ccccc12)n1cnc2ccccc2c1=O (stereo unspecified)
IC50 (cells): > 50 µM (active)

Reference: ChEMBL document CHEMBL1201862, “PubChem BioAssay data set” (2004)
